Measurements reported in publication PMC11901700, “A Sweet Almond Globulin Multifunctional Peptide: Identification, In Silico Screening, Restraint Mechanisms to Keap1 and ACE, and Antihypertensive and Ferrous Transport Efficiency” (Nutrients, 2025).
“And” between values parts separate entries of the source, which are not always exact repeats. Equal entries are not always repeated. Where two headings read alike, the source gives them in different places. Each block holds one compound with its values, some of them ahead of it. Where no end group is shown, it is not given here.

How the values were obtained:
ACE (from rabbit lungs) [1] = molecular target: T1, ACE (from rabbit lungs) (Oryctolagus cuniculus, UniProt P12822); design: method as in 3 sources, ref 29 = [29]; doi:10.1111/j.1365-2621.2001.tb04614.x; 29. Nielsen P.M. Petersen D. Dambmann C. Improved method for determining food protein degree of hydrolysis J. Food Sci. 2001 66 642 646 10.1111/j.1365-2621.2001.tb04614.x ||| ref 43 = [43]; PMID 38470110; doi:10.1021/acs.jafc.4c00829; 43. Martineau-Côté D. Achouri A. Karboune S. L’Hocine L. Antioxidant and Angiotensin-Converting Enzyme Inhibitory Activity of Faba Bean-Derived Peptides After In Vitro Gastrointestinal Digestion: Insi ||| ref 10 = [10]; PMID 36493485; doi:10.1016/j.foodchem.2022.135082; 10. Fadimu G.J. Gan C.Y. Olalere Q.A. Farahnaky A. Gill H. Truong T. Novel antihypertensive peptides from lupin protein hydrolysate: An in-silico identification and molecular docking studies Food Chem; details: read-out: ACE inhibition IC50 (literature), cited from earlier work
T1 construct: ACE (0.1 U, from rabbit lungs, purity > 99.7%, CAS: 9015-82-1) was obtained from Sigma-Aldrich; purchased Sigma-Aldrich (St. Louis, MO, USA); host or cells: rabbit lung tissue
T1 sequence (P12822 34-1310): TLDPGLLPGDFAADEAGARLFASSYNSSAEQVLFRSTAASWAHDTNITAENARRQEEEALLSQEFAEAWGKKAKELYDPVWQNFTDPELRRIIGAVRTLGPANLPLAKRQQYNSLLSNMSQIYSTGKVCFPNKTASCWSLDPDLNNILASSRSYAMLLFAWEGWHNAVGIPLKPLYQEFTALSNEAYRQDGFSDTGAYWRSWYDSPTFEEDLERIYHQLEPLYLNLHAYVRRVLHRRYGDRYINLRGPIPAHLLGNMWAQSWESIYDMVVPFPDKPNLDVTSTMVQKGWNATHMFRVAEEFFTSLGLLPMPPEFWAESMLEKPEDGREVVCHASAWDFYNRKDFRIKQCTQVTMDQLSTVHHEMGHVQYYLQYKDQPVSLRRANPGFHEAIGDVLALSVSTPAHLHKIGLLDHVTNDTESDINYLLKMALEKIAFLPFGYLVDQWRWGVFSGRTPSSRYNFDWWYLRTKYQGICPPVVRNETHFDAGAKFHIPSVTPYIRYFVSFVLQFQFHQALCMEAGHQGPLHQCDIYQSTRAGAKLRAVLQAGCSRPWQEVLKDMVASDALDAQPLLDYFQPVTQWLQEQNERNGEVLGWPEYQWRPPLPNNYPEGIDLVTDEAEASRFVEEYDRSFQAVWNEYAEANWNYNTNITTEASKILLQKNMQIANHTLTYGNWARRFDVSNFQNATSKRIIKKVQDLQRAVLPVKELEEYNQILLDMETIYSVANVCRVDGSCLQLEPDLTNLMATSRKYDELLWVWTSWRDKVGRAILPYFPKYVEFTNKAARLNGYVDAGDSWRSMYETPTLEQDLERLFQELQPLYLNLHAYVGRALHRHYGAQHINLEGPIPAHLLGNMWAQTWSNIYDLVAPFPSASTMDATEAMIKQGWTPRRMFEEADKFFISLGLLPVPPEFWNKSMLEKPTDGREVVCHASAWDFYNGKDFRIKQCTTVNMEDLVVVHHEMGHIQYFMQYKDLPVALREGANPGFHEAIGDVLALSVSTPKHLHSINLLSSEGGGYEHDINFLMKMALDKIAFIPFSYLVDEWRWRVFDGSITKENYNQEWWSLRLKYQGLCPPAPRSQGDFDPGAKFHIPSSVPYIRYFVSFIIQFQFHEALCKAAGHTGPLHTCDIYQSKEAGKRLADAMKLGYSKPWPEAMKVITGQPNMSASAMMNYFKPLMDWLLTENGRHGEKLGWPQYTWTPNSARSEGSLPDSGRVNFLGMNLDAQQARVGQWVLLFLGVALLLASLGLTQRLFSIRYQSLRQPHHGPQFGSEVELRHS

[2] = cited from earlier work
Description: The ACE inhibition and antioxidant activities of […] were stable during gastrointestinal digestion (Figure 3A and Table 2), which is mainly ascribed to the Pro, Val, and Met residues. […] Therefore, the Pro and Val residues of […] were mainly responsible for its gastrointestinal stability. Peptides rich in Pro and br ...

[3] = Hydroxyl radical scavenging activity (β-deoxyribose oxidation method); assay type: physicochemical; details: at 100 μg/mL
Description: (§1) As described by Wang et al. and Vásquez et al., the hydroxyl (·OH) and superoxide ( O2−· ) radicals’ scavenging activity was measured using the β-deoxyribose oxidation and pyrogallol auto-oxidation methods, respectively. The comparison was conducted when the samples were replaced by glutathione (0.1 mg/mL).

ABTS+ quenching ability = assay type: physicochemical; details: at 100 μg/mL; absorbance at 734 nm; mean ± standard error
Description: The ABTS^+ quenching ability was determined following the same procedures described by Vásquez et al.. The same system without the sample was the control, and glutathione (0.1 mg/mL) was the comparison. The percentage of reduction in absorbance at 734 nm was defined as the ABTS^+ scavenging ability of samples.

[4] = Reducing power (potassium ferricyanide method); assay type: physicochemical; details: at 100 μg/mL; absorbance at 700 nm
Description: The potassium ferricyanide method was employed to determine the reducing power of the SAGH peptides at the same conditions reported by Wang et al., where the absorbance at 700 nm represented the reducing power.

[5] = Superoxide radical scavenging activity (pyrogallol auto-oxidation method); assay type: physicochemical; details: at 100 μg/mL
Description: as §1

[6] = Ferrous ion binding capacity (o-phenanthroline method); assay type: physicochemical; details: decrease in ferrous concentration per sample concentration, mean ± standard error, at least three tests
Description: The ferrous ion binding capacity was determined using the o-phenanthroline method following the same procedures described by Xu et al.. By plugging the absorbance value into the equation of A = 0.3719C + 0.0002 [36], the ferrous ion concentration (C) can be calculated. The ferrous ion binding capacity (mg/g) was defined as the decrease in ferrous concentration of the reaction solution per sample concentration.

[7] = assay not specified, cited from earlier work
Description: Alternatively, the guanidine of Arg, imidazolyl in His, the free hydroxyl group of Ser, the cyclic amino group of Pro, and the phenolic hydroxyl group of Tyr can quickly quench free radicals, showing excellent antioxidant ability. Moreover, the sulfhydryl group in Cys or Met can inhibit free radicals’ chain reaction by chelating metal ions, which are catalysts for oxidation reactions. Therefore, the residues, including Tyr, Pro, Val, and Met, were responsible for the antioxidant activity of […]. Furthermore, the repeated amino acid sequences “GGG” can enhance the antioxidant ...

ACE (from rabbit lungs) [8] = molecular target: T1, ACE (from rabbit lungs); experiment: ACE inhibitory ability (hippuric acid method); assay type: biochemical; details: N = 3
Description: The hippuric acid method was used to measure the samples’ inhibitory ability towards ACE, following the same procedures as Zheng et al.. The absorbance at 228 nm was the hippuric acid content and represented ACE activity; therefore, the inhibitory ability of samples towards ACE was defined as the percentage of reduction in the absorption at 228 nm between the control and sample groups. Moreover, the ACE inhibitory kinetic of SAGH peptides was investigated by employing a Lineweaver–Burk plot with N-hippuryl-L-histidyl-L-leucine (HHL, 0.13–1.32 mmol/L) as the substrate.
(§2) As described by Wu et al., the simulative gastric digestive fluid consisted of sodium chloride (0.18 mol/L), ultrapure water (180 mL), and 0.40 mg/mL of pepsin. The simulation intestinal digestive juice was composed of NaHCO3, ([…]), bile salt (3 g/100 mL), pancreatin (0.35 mg/mL), and 180 mL of ultrapure water. The antihypertensive and antioxidant SAGH peptides (5 mg/mL, 60 mL) were first hydrolyzed using 150 mL of simulative gastric fluid at 37 °C and 140 rpm for 90 min. The mixture was adjusted to pH 7.0, and 180 mL of the simulative intestinal hydrolysis fluid was added and stirred at 37 °C for 2 h. After boiling for 6 min, the mixture was cooled with running water to room temperature. The ACE inhibition capacity and antioxidant ability of the treated SAGH peptides were detected and compared to those of the […] SAGH peptides.

[9] = Gastrointestinal stability of SAGH peptide (simulated gastric and intestinal digestion); assay type: in vitro ADME; details: peptide 5 mg/mL; simulated gastric fluid (pepsin 0.40 mg/mL) 37 °C, 140 rpm, 90 min, then pH 7.0 intestinal fluid (pancreatin 0.35 mg/mL, bile salt 3 g/100 mL) 37 °C 2 h; read-out activity
Description: as §2

[10] = Gastrointestinal stability of peptide–ferrous chelate (ferrous solubility in simulated digestion); assay type: in vitro ADME
Description: Next, the intestinal digestive fluid was added, and digestion was continued at pH 6.8 for 2 h in the EDZF-C002 thermostatic vibrator ([…], 175 rpm).

Compound: VIPTEPPHA [literature peptide from Faba beans]
IC50 (ACE (from rabbit lungs) [1]; peptide from Faba beans): 260 µM
gastrointestinal stability (literature) ([2]; peptide from Faba beans): good gastrointestinal stability

Compound: N[C@@H](CCC(=O)N[C@@H](CS)C(=O)NCC(=O)O)C(=O)O [Glutathione, glutathione, reference compound]
·OH Scavenging Activity (%) Before Gastrointestinal Digestion [3]: 95.56 ± 1.38 a,b %
ABTS+ Scavenging Activity (%) Before Gastrointestinal Digestion (ABTS+ quenching ability): 79.25 ± 1.67 b %
Reducing Power Before Gastrointestinal Digestion [4]: 0.675 ± 0.019 a
Superoxide Radical Scavenging Ability (%) Before Gastrointestinal Digestion [5]: 90.52 ± 4.97 a %

Compound: SGGEEAAAGP [oligopeptide identified in SAGH-D]
Ferrous chelating capacity [6]: 18.22 mg/g and 16.14 ± 0.43 g mg/g

Compound: LPSYVN [literature antioxidant peptide from apricot]
antioxidant activity (literature) ([7]; peptides from apricot): excellent antioxidant activity

Compound: SPAIPLP [literature antioxidant peptide from broad bean]
antioxidant activity (literature) ([7]; peptides from broad bean): excellent antioxidant activity

IC50 (ACE (from rabbit lungs) [8]; hippuric acid method, HHL substrate, absorbance at 228 nm, read-out: ACE inhibitory activity (IC50)): 121 µM
IC50 (ACE (from rabbit lungs) [8]; peptide 5 mg/mL, simulated gastric fluid (pepsin 0.40 mg/mL) 37 °C 90 min, then intestinal fluid (pancreatin 0.35 mg/mL, bile salt) pH 7.0, 37 °C 2 h, read-out: ACE inhibitory activity (IC50) after simulated gastrointestinal digestion): 130 µM
stability of ACE inhibition and antioxidant activities during gastrointestinal digestion [9]: stable
Compound: PMYGGGMV

Compound: PIIAKMY [literature peptide from millet glutelin-2]
gastrointestinal stability (literature) ([2]; peptide from millet glutelin-2): good gastrointestinal stability

Compound: GCHHY
IC50 (ACE (from rabbit lungs) [1]; peptide from millet bran glutelin-2): 147 µM

Compound: VSRRFIYYL [literature antioxidant peptide from broad bean]
antioxidant activity (literature) ([7]; peptides from broad bean): excellent antioxidant activity

ferrous solubility during gastric digestion ([10]; 0–90 min, simulated gastric fluid pH 1.9, 37 °C, 175 rpm, soluble ferrous by o-phenanthroline every 30 min, N = 3): relatively stable
ferrous solubility during intestinal digestion ([10]; 91–240 min, intestinal digestive fluid pH 6.8, soluble ferrous by o-phenanthroline, p < 0.05): apparently decreased
Compound: [Cl][Fe][Cl] [ferrous chloride, reference compound]

Compound: YLSF [literature antioxidant peptide from apricot]
antioxidant activity (literature) ([7]; peptides from apricot): excellent antioxidant activity
